Results on four molecules are retold here after patent US20070167495A1, “Pleuromutilin derivatives, process for their preparation and uses thereof” (GLAXO[…] UNLIMITED, priority 2003, published 2007).

For experiment [1], the system named is Staphylococccus aureus Oxford. Briefly: Antibacterial activity, MIC against Staphylococccus aureus Oxford. The experiment is classed as cell-based, Staphylococcus aureus.
Experiment [2] deals with Streptococcus pneumoniae 1629. Briefly: Antibacterial activity, MIC against Streptococcus pneumoniae 1629. Format: cell-based.
For experiment [3] the following is noted: literature background (Egger and Reinshagen, J. Antibiotics 1976); cited from earlier work.

Consider “(4-Carboxylato-phenylsulfanyl)-acetic acid mutilin 14-ester [Example 1]”, for which the MIC is 0.125 micrograms per millillitre in experiment [1] and 0.5 micrograms per millillitre in experiment [2].
As to `C=C[C@]1(C)C[C@@H](OC(=O)CO)[C@]2(C)[C@H](C)CC[C@]3(CCC(=O)[C@H]32)[C@@H](C)[C@@H]1O` [Pleuromutilin], the antibacterial activity entry in experiment [3] is “modest antibacterial activity”.
Turning to `C=C[C@]1(C)C[C@@H](OC(=O)CSc2ccccc2C(=O)O)[C@]2(C)[C@H](C)CC[C@]3(CCC(=O)[C@H]32)[C@@H](C)[C@@H]1O` [(2-carboxylato-phenylsulfanyl)-acetic acid mutilin 14-ester], the MIC in experiment [1] was 0.5 micrograms per millillitre; in experiment [2] it was 8 micrograms per millillitre. The antibacterial activity entry in experiment [3] is “inferior in activity even to the parent substance pleuromutilin”.
For `C=C[C@]1(C)C[C@@H](O)[C@]2(C)[C@H](C)CC[C@]3(CCC(=O)[C@H]32)[C@@H](C)[C@@H]1O` [Mutilin], in experiment [3], the antibacterial activity result is “inactive”.
